Measurements from patent US20250388605A1, “HETEROBIFUNCTIONAL COMPOUNDS AND METHODS OF TREATING DISEASE” (Halda Therapeutics OpCo, Inc., priority 2022, published 2025).

Experiments:
[1] = test system: T-Rex 293 cell line SC3 cells lacking increased expression of androgen receptor protein; experiment: Cellular growth inhibition, T-Rex 293 SC3 cells without doxycycline (no increased androgen receptor expression), CellTiter-Glo; type: cell-based; conditions: T-Rex 293 SC3 cells not exposed to doxycycline (no increased androgen receptor expression), 72 hours
Experimental: (§1) The following types of cells were prepared for this experiment: (i) a T-Rex 293 cell line having increased expression of androgen receptor protein due to exposure to doxycycline and (ii) a T-Rex 293 cell line lacking increased expression of androgen receptor protein. Ability of the test compounds to inhibit proliferation of the foregoing cell types was evaluated according to the procedures set forth below.
(§2) The doxycycline-inducible androgen receptor protein expressing cell line was established using the following protocol: T-Rex 293 cells were purchased from Invitrogen (Cat #R71007) and transfected using Lipofectamine 2000 with the wild-type androgen receptor protein sequence cloned into the pcDNA4/TO vector. Transfected cells were selected using 400 μg/mL Zeocin (Invitrogen Cat #R25001). Following selection, single clones were raised and maintained in Dulbecco's Modified Eagle Medium (DMEM) supplemented with 10% w/w Tetracycline-free fetal bovine serum (FBS) and 250 μg/mL Zeocin. Clones were analyzed for expression of androgen receptor protein in the presence and absence of 10 ng/mL doxycycline (Sigma Cat #D9891), and a single doxycycline-inducible clone (hereinafter “SC3”) was selected for use in downstream assays.
(§3) The SC3 cells were seeded on poly-D-lysine coated, black clear-bottom 384-well plates at 2500/well, in 25 μL Phenol Red Free Dulbecco's Modified Eagle Medium (DMEM) supplemented with 10% w/w charcoal-dextran treated fetal bovine serum (FBS) and 1% w/w pen-strep, with or without 10 ng/mL doxycycline. Pen-Strep is a commercially available mixture of penicillin G and streptomycin, which is used in mammalian cell culture media to prevent bacterial contamination. Phenol Red Free Dulbecco's Modified Eagle Medium (DMEM) supplemented with 10% w/w charcoal-dextran treated fetal bovine serum (FBS) and 1% w/w pen-strep, with or without 10 ng/mL doxycycline is herein referred to as Treatment Medium. Following seeding of cells in the plates, the plates were spun at 300×g for 30 seconds, then equilibrated to room temperature for 30 minutes, and then deposited in a humidified tissue culture incubator maintained at 37° C. with 5% CO2.
(§4) At 24 hours after seeding of the cells, dilutions of test compound were prepared in DMSO and dissolved in Treatment Medium, to achieve a final DMSO concentration of 0.5% w/w, thereby providing the Test Compound Solution. A 25 μL aliquot of the Test Compound Solution was added to cells in the well plates. An equal volume of a solution containing DMSO and Treatment Medium was used as a negative control. Following treatment of cells with Test Compound Solution or said equal volume of a solution containing DMSO and Treatment Medium, the plates were spun at 300×g for 30 seconds, and then left in an incubator for 72 hours.
(§5) At the end of the treatment duration, cell viability was quantified with CellTiter-Glo 2.0 reagent (Promega Cat #G9243). For this purpose, plates were equilibrated to room temperature for 30 minutes, and then 25 μL of CellTiter-Glo 2.0 reagent was added to cells in the plate wells. Plates were then agitated on a shaker for two minutes at 500 rpm and subsequently incubated at room temperature for 10 minutes. Following incubation, the plates were spun at 3000×g for 30 seconds, then sealed with an optical adhesive cover, and luminescence readings were measured with an EnVision Plate Reader.
(§6) Data was normalized using zero luminescence for baseline. A four-parameter non-linear regression curve fit was applied to dose-response data in GraphPad Prism data analysis software to determine the half-maximal growth inhibitory concentration (GI50) for each test compound.

[2] = test system: VCaP cells; experiment: Cellular growth inhibition assay for VCaP cells, CellTiter-Glo; type: cell-based, human; conditions: 72 hours
Experimental: VCaP cells were purchased from American Type Cell Culture (ATCC Cat #CRL2876) and then seeded on poly-D-lysine coated, black clear-bottom 384-well plates at 5000/well in 25 μL Dulbecco's Modified Eagle Medium (DMEM) supplemented with 10% w/w Fetal bovine serum (FBS) and 1% w/w Pen-Strep. Pen-Strep is a commercially available mixture of penicillin G and streptomycin, which is used in mammalian cell culture media to prevent bacterial contamination. Dulbecco's Modified Eagle Medium (DMEM) supplemented with 10% w/w fetal bovine serum (FBS) and 1% w/w Pen-Strep is herein referred to as Treatment Medium. Following seeding of cells in the plates, the plates were spun at 300×g for 30 seconds, then equilibrated to room temperature for 30 minutes, and then deposited in a humidified tissue culture incubator maintained at 37° C. with 5% CO2.
as §4, §5, §6

[3] = test system: T-Rex 293 cell line SC3 cells having increased expression of androgen receptor protein due to exposure to doxycycline; experiment: Cellular growth inhibition, T-Rex 293 SC3 cells with doxycycline (increased androgen receptor expression), CellTiter-Glo; type: cell-based; conditions: T-Rex 293 SC3 cells with 10 ng/mL doxycycline (increased androgen receptor expression), 72 hours, CellTiter-Glo 2.0
Experimental: as §1, §2, §3, §4, §5, §6

Row | Compound | GI50 ([2]; Homo sapiens) [nM] | GI50 [2] [nM] | GI50 [1] [nM] | GI50 [3] [nM]
1 | CCC(=O)Nc1ccc(Oc2cccc(OCCOC3CCN(c4ncc(C(=O)N[C@H]5C(C)(C)[C@H](Oc6ccc(C#N)c(Cl)c6)C5(C)C)cn4)CC3)c2)c(-c2cn(C)c(=O)c3[nH]ccc23)c1 [Compound I-59, N-((1r, 3r)-3-(3-chloro-4-cyanophenoxy)-2,2,4,4-tetramethylcyclobutyl)-2-(4-(2-(3-(2-(6-methyl-7-oxo-6,7-dihydro-1H-pyrrolo[2,3-c]pyridin-4-yl)-4-propionamidophenoxy)phenoxy)ethoxy)piperidin-1-yl)pyrimidine-5-carboxamide] | > 3000 |  | > 3000 | < 500
2 | CCC(=O)N(C)c1ccc(Oc2cccc(OCCOC3CCN(c4ncc(C(=O)N[C@H]5C(C)(C)[C@H](Oc6ccc(C#N)c(Cl)c6)C5(C)C)cn4)CC3)c2)c(-c2cn(C)c(=O)c3[nH]ccc23)c1 [Compound I-60] | < 500 |  | > 3000 | < 500
3 | CCS(=O)(=O)Nc1ccc(Oc2cccc(C(=O)N(C)CCOC3CCN(c4ncc(C(=O)N[C@H]5C(C)(C)[C@H](Oc6ccc(C#N)c(Cl)c6)C5(C)C)cn4)CC3)c2)c(-c2cn(C)c(=O)c3[nH]ccc23)c1 [Compound I-66, N-((1r, 3r)-3-(3-chloro-4-cyanophenoxy)-2,2,4,4-tetramethylcyclobutyl)-2-(4-(2-(3-(4-(ethylsulfonamido)-2-(6-methyl-7-oxo-6,7-dihydro-1H-pyrrolo[2,3-c]pyridin-4-yl)phenoxy)-N-methylbenzamido)ethoxy)piperidin-1-yl)pyrimidine-5-carboxamide] | < 500 |  | > 3000 | < 500
4 | CCS(=O)(=O)Nc1ccc(Oc2cccc(OCCN3CCN(c4ncc(C(=O)N[C@H]5C(C)(C)[C@H](Oc6ccc(C#N)c(Cl)c6)C5(C)C)cn4)CC3)c2)c(-c2cn(C)c(=O)c3[nH]ccc23)c1 [Compound I-77] | < 500 |  | < 500 | < 500
5 | CCS(=O)(=O)Nc1ccc(Oc2cccc(OCCNC3CCN(c4ncc(C(=O)N[C@H]5C(C)(C)[C@H](Oc6ccc(C#N)c(Cl)c6)C5(C)C)cn4)CC3)c2)c(-c2cn(C)c(=O)c3[nH]ccc23)c1 [Compound I-85] | < 500 |  | 500 to 1500 | < 500
6 | CCS(=O)(=O)Nc1ccc(Oc2cccc(N(C)CCN(C)C3CCN(c4ncc(C(=O)N[C@H]5C(C)(C)[C@H](Oc6ccc(C#N)c(Cl)c6)C5(C)C)cn4)CC3)c2)c(-c2cn(C)c(=O)c3[nH]ccc23)c1 [Compound I-86] | < 500 |  | < 500 | < 500
7 | CCS(=O)(=O)Nc1ccc(Oc2cccc(OCCN(C)C3CCN(c4ncc(C(=O)N[C@H]5C(C)(C)[C@H](Oc6ccc(C#N)c(Cl)c6)C5(C)C)cn4)CC3)c2)c(-c2cn(C)c(=O)c3[nH]ccc23)c1 [Compound I-87] | < 500 |  | < 500 | < 500
8 | CCS(=O)(=O)Nc1ccc(Oc2cc(OCCOC3CCN(c4ncc(C(=O)N[C@H]5C(C)(C)[C@H](Oc6ccc(C#N)c(Cl)c6)C5(C)C)cn4)CC3)ccn2)c(-c2cn(C)c(=O)c3[nH]ccc23)c1 [Compound I-111] | < 500 |  | > 3000 | < 500
9 | CCS(=O)(=O)Nc1ccc(-n2ccc(OCCOC3CCN(c4ncc(C(=O)NC5C(C)(C)C(Oc6ccc(C#N)c(Cl)c6)C5(C)C)cn4)CC3)cc2=O)c(-c2cn(C)c(=O)c3[nH]ccc23)c1 (stereo not drawn) [Compound I-112, N-[3-(3-chloro-4-cyano-phenoxy)-2,2,4,4-tetramethyl-cyclobutyl]-2-[4-[2-[[1-[4-(ethylsulfonylamino)-2-(6-methyl-7-oxo-1H-pyrrolo[2,3-c]pyridin-4-yl)phenyl]-2-oxo-4-pyridyl]oxy]ethoxy]-1-piperidyl]pyrimidine-5-carboxamide] | > 3000 |  | > 3000 | < 500

Now from value to compound, other results behind:

Row | GI50 ([2]; Homo sapiens) [nM] | GI50 [2] [nM] | Compound | GI50 [1] [nM] | GI50 [3] [nM]
10 | < 500 |  | CCS(=O)(=O)Nc1ccc(Oc2cccc(N(C)CCOC3CCN(c4ncc(C(=O)N[C@H]5C(C)(C)[C@H](Oc6ccc(C#N)c(Cl)c6)C5(C)C)cn4)CC3)c2)c(-c2cn(C)c(=O)c3[nH]ccc23)c1 [Compound I-113] | < 500 | < 500
11 | < 500 |  | CCS(=O)(=O)Nc1ccc(Oc2cc(F)cc(OCCOC3CCN(c4ncc(C(=O)N[C@H]5C(C)(C)[C@H](Oc6ccc(C#N)c(Cl)c6)C5(C)C)cn4)CC3)c2)c(-c2cn(C)c(=O)c3[nH]ccc23)c1 [Compound I-127] | > 3000 | < 500
12 | < 500 |  | CCS(=O)(=O)Nc1ccc(Oc2ccc(F)c(OCCOC3CCN(c4ncc(C(=O)N[C@H]5C(C)(C)[C@H](Oc6ccc(C#N)c(Cl)c6)C5(C)C)cn4)CC3)c2)c(-c2cn(C)c(=O)c3[nH]ccc23)c1 [Compound I-128] | > 3000 | < 500
13 |  | < 500 | Cn1cc(-c2cc(NS(=O)(=O)C3CC3)ccc2Oc2cccc(OCCC3CCN(c4ncc(C(=O)N[C@H]5C(C)(C)[C@H](Oc6ccc(C#N)c(Cl)c6)C5(C)C)cn4)CC3)c2)c2cc[nH]c2c1=O [Compound I-130] | > 3000 | < 500
14 |  | > 3000 | CC(C)c1ccc(Oc2cccc(OCCC3CCN(c4ncc(C(=O)N[C@H]5C(C)(C)[C@H](Oc6ccc(C#N)c(Cl)c6)C5(C)C)cn4)CC3)c2F)c(-c2cn(C)c(=O)c3[nH]ccc23)c1 [Compound I-132] | > 3000 | > 3000
15 |  | < 500 | Cn1cc(-c2cc(NS(=O)(=O)C3CC3)ccc2Oc2cccc(CCCN3CCN(c4ncc(C(=O)N[C@H]5C(C)(C)[C@H](Oc6ccc(C#N)c(Cl)c6)C5(C)C)cn4)CC3)c2F)c2cc[nH]c2c1=O [Compound I-135] | > 3000 | < 500
16 |  | < 500 | Cn1cc(-c2cc(NS(=O)(=O)C3CC3)ccc2Oc2cccc(CCOC3CCN(c4ncc(C(=O)N[C@H]5C(C)(C)[C@H](Oc6ccc(C#N)c(Cl)c6)C5(C)C)cn4)CC3)c2F)c2cc[nH]c2c1=O [Compound I-136] | < 500 | < 500
17 |  | < 500 | CCS(=O)(=O)Nc1ccc(Oc2ccc(OCCOC3CCN(c4ncc(C(=O)N[C@H]5C(C)(C)[C@H](Oc6ccc(C#N)c(Cl)c6)C5(C)C)cn4)CC3)cc2)c(-c2cn(C)c(=O)c3[nH]ccc23)c1 [Compound I-139] | < 500 | < 500
18 |  | 1500 to 3000 | Cn1cc(-c2cc(NS(=O)(=O)C3CC3)ccc2Oc2cccc(CCOC3CCN(c4ncc(C(=O)N[C@H]5C(C)(C)[C@H](Oc6ccc(C#N)c(Cl)c6)C5(C)C)cn4)CC3)c2)c2cc[nH]c2c1=O [Compound I-145] | > 3000 | < 500
19 | < 500 |  | CCS(=O)(=O)Nc1ccc(Oc2cc(OCCOC3CCN(c4ncc(C(=O)N[C@H]5C(C)(C)[C@H](Oc6ccc(C#N)c(Cl)c6)C5(C)C)cn4)CC3)ccc2F)c(-c2cn(C)c(=O)c3[nH]ccc23)c1 [Compound I-150] | > 3000 | < 500
20 |  | < 500 | CCS(=O)(=O)Nc1ccc(Oc2ccc(CCCOC3CCN(c4ncc(C(=O)N[C@H]5C(C)(C)[C@H](Oc6ccc(C#N)c(Cl)c6)C5(C)C)cn4)CC3)cc2)c(-c2cn(C)c(=O)c3[nH]ccc23)c1 [Compound I-152] | < 500 | < 500
